# Test results reported in PubChem BioAssay (NCI).
#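 1) Cells in 96-well plates. 2) Compound, 48 h, 5 concentrations. 3) Linear interpolation between surrounding doses. 4) Unreached endpoint = highest concentration. TGI is the concentration that stops growth completely.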
# Experiments:
# Assay in all cases: growth of human tumour cells (NCI), 48 h
# SF-295 CNS = tested on: SF-295 CNS
# K-562 leukemia = tested on: K-562 leukemia
# HOP-92 NSCLC = tested on: HOP-92 NSCLC
# HCC-2998 colon = tested on: HCC-2998 colon
# PC-3 prostate = tested on: PC-3 prostate
# SN12C renal = tested on: SN12C renal
# SK-MEL-2 melanoma = tested on: SK-MEL-2 melanoma
# MDA-N = tested on: MDA-N
# 786-0 renal = tested on: 786-0 renal
# T-47D breast = tested on: T-47D breast
# KM12 colon = tested on: KM12 colon
# HOP-62 NSCLC = tested on: HOP-62 NSCLC
# BT-549 breast = tested on: BT-549 breast
# SK-MEL-5 melanoma = tested on: SK-MEL-5 melanoma
# SK-MEL-28 melanoma = tested on: SK-MEL-28 melanoma
# HL-60(TB) leukemia = tested on: HL-60(TB) leukemia
# SF-268 CNS = tested on: SF-268 CNS
# U251 CNS = tested on: U251 CNS
SMILES,TGI (SF-295 CNS) [µM],TGI (K-562 leukemia) [µM],TGI (HOP-92 NSCLC) [µM],TGI (HCC-2998 colon) [µM],TGI (PC-3 prostate) [µM],TGI (SN12C renal) [µM],TGI (SK-MEL-2 melanoma) [µM],TGI (MDA-N) [µM],TGI (786-0 renal) [µM],TGI (T-47D breast) [µM],TGI (KM12 colon) [µM],TGI (HOP-62 NSCLC) [µM],TGI (BT-549 breast) [µM],TGI (SK-MEL-5 melanoma) [µM],TGI (SK-MEL-28 melanoma) [µM],TGI (HL-60(TB) leukemia) [µM],TGI (SF-268 CNS) [µM],TGI (U251 CNS) [µM]
CN(C)/C=N/c1cc(=O)n(C)c(=O)n1C,> 100,> 100,> 100,> 100,> 100,> 100,> 100,> 100,> 100,> 100,> 100,> 100,> 100,> 100,> 100,> 100,> 100,> 100
CN1CC=C(C#CC(C)(C)O)CC1,> 37.5,> 37.5,,> 37.5,> 37.5,> 37.5,> 37.5,> 37.5,> 37.5,> 37.5,> 37.5,> 37.5,> 37.5,> 37.5,> 37.5,> 37.5,> 37.5,> 37.5
COC(=O)C(Cc1c(-c2[nH]c3ccccc3c2CC(NC(C)=O)C(=O)OC)[nH]c2ccccc12)NC(C)=O (centres undefined),> 100,> 100,> 100,,> 100,> 100,> 100,> 100,> 100,> 100,> 100,> 100,> 100,> 100,> 100,> 100,> 100,> 100
O=C(Cn1c2ccc(Br)cc2c2nc3ccccc3nc21)NNC(=O)NC1CCCCC1,> 100,> 100,,> 100,> 100,> 100,> 100,> 100,> 100,> 100,> 100,78.8,> 100,> 100,> 100,,> 100,> 100
CC(/C=C/c1ccccc1)=N\NC(=S)N/N=C(C)/C=C/c1ccccc1,61.6,> 100,,> 100,> 100,> 100,50.3,> 100,29.5,> 100,,57.7,56.7,42.8,> 100,> 100,21.7,16.2
O=[N+]([O-])c1ccc(C2=NOC(c3ccccc3)N2C23CC4CC(CC(C4)C2)C3)cc1 (centres undefined),66.6,39.9,,> 100,43.8,> 100,37.5,58,57.9,> 100,71.9,80.2,46,38.4,> 100,> 100,> 100,> 100
Cc1ccc(S(=O)(=O)NC(=O)NC(CCCCN)C(=O)O)cc1 (centres undefined),> 100,> 100,> 100,,> 100,> 100,> 100,> 100,> 100,> 100,> 100,> 100,> 100,> 100,> 100,> 100,> 100,> 100
CN(C)CCNc1ncnc2nc(-c3ccccc3)c(-c3ccccc3)nc12,,,,,> 100,> 100,> 100,> 100,> 100,> 100,> 100,> 100,> 100,> 100,> 100,> 100,> 100,> 100
NN/C(=N\S(=O)(=O)c1cc(S(=O)(=O)c2ccccc2)cs1)Nc1ccc(Cl)cc1,75.5,> 100,> 100,,69.7,> 100,38.2,59.2,> 100,55.9,89.6,> 100,> 100,32.3,> 100,32.7,89,89.6
COc1cc2c(SCCN(C)C)nc3ccccc3c2c2ccccc12,3.45,> 100,5.83,2.88,8.24,6.41,4.03,4.87,3.76,7.66,2.69,2.81,21.7,3.08,3.17,,5.39,4.32
Cc1c(CN2CCOCC2)c(CN2CCOCC2)c(C)n1-c1ccc(Cl)cn1,> 100,> 100,,> 100,> 100,> 100,> 100,> 100,> 100,> 100,> 100,> 100,> 100,> 100,> 100,,> 100,> 100
O=S(=O)(Cc1ccccc1)c1nnc(S(=O)(=O)c2ccc(Cl)cc2)s1,54.9,> 100,,,46.7,46.7,50.7,33,49.5,> 100,> 100,47.3,41.6,33.6,44,,63.4,94.9
C=C1[C@@H](OC(C)=O)/C=C/C2C3C(=O)[C@@](C)(OC(C)=O)[C@H]([C@H](OC(C)=O)[C@]4(O)[C@@H](C)C(=O)O[C@H]4[C@H]1Cl)[C@@]23C (some centres undefined),> 100,> 100,> 100,> 100,> 100,> 100,> 100,> 100,> 100,> 100,> 100,> 100,> 100,> 100,> 100,,> 100,> 100
